Experimental data from patent publication US5747253A, “Combinatorial oligomer immunoabsorbant screening assay for transcription factors and other biomolecule binding” (Isis Pharmaceuticals, Inc., priority 1995, dated 1998).

What was measured:
HIV-tat protein [1] = experiment: Competition assay for HIV-tat binding against ΔTAR-B; conditions: RNA library pools at 1 μM, 10 μM and 100 μM; ΔTAR-B 100 nM
From the text: A truncated version (residues 16-45; ΔTAR) of the TAR hairpin previously shown to bind tat was synthesized using 2'-O-methyl oligonucleotides as described in Example 4 and was biotin conjugated on the 3' end (ΔTAR-B) as described in Example 9. A combinatorial library was synthesized using RNA oligonucleotides with the sequence CCA NNX NNNNGCCUGGGAGCNNNNUGG, where X=A (SEQ ID NO:24), G (SEQ ID NO:25), C (SEQ ID NO:26), or U (SEQ ID NO:27) as described in Example 2 and 6.
The pools of the library at 0, 1, 10, or 100 μM were incubated with 100 μl of purified recombinant tat transcription factor (Repligen) at a concentration of 20 pg/μl for 15'. This and all other steps were carried out at room temperature. The competitor, ΔTAR-B, was then added at a concentration of 100 nM. Following a 20' incubation, the mixture was bound to streptavidin-coated microtiter plates as in Example 33. After the non-bound molecules were washed away with PBS, 100 μl of 1:500 tat antisera was added to each well for 2 hours. Protein A/G-alkaline phosphatase was bound to the tat antibodies followed by the addition of the PNPP substrate and quantitation of A 405 as detailed in Example 33.
In the competition mode library pools which bind the transcription factor prevent binding to the natural target (in this case the competitor ΔTAR) also present in the assay. […]

HIV-tat protein [2] = experiment: Capture assay for HIV-tat binding; conditions: phosphorothioate library pools at 100 nM
Protocol: As a positive control, the native double stranded NF-kB binding site was incubated at 100 nM with the same amount of extract. Following the incubation each mixture was added to streptavidin coated microtiter plates (Elkay Lab Systems) and incubated 20 minutes. Unbound molecules were washed away with PBS. 10 μl of PBS plus 5% fetal calf serum was added to each well for 20 minutes at room temperature followed by aspiration and addition of 100 μl of 1:500 tat antisera in PBS plus 1% FCS for 2 hours at room temperature. The wells were then washed with PBS and 100 μl of 1:5000 Protein A/G-alkaline phosphatase (Pierce) added in PBS for 2 hours at room temperature. […] Color development was measured 2 hours later by reading absorbance at 405 nm on a Titertek Multiscan ELISA plate reader.
This and all other steps were carried out at room temperature. […] Protein A/G-alkaline phosphatase was bound to the tat antibodies followed by the addition of the PNPP substrate and quantitation of A 405 as detailed in Example 33.
Each pool of the phosphorothioate combinatorial library described in Example 33 was incubated at a concentration of 100 nM with tat protein as described in Example 34. Following incubation of the protein with the library pools, the complexes were captured on streptavidin plates and binding quantitated as in Example 33. […]

gag-pol stem loop = experiment: Gel shift analysis of RNA oligonucleotide sets binding to HIV gag-pol stem loop (triple strand); conditions: 100 mM NaCl, 25 mM TRIS acetate pH5, 2 mM MgCl2, 1 mM spermidine
From the text: Binding to double stranded DNA or RNA is possible by formation of a three stranded complex with the incoming third strand binding in the major groove of the duplex RNA or DNA. The molecular nature of the interaction between the oligomer and target need not be known in order to practice the technique. Thus, it is possible that novel interactions between oligomers and DNA or RNA will be responsible for binding. One of the limitations in the design of triple strand interactions is the need to have a long stretch of homopurines as a target. The 3' (right) side of the gag-pol stem loop is homopurine except for a pair of cytosines near the bottom of the stem. To determine the best oligonucleotide to bind to the gag-pol stem loop, a group of RNA oligonucleotide sets was designed to bind to the purine-rich strand of the gag-pol stem-loop by Hoogstein base pairing and prepared in accordance with Examples 2 and 6. Binding to the gag-pol stemloop was measured by gel shift analysis as previously described in Example 8 with the following modifications: the radiolabeled gag-pol RNA was incubated with the oligonucleotide in 100 mM NaCl, 25 mM TRIS acetate pH5, 2 mM Mg Cl2, 1 mM spermidine. The gel was a 15% acrylamide with 50 mM NaCl 2 mM MgCl2 added to the running buffer.

c-rel = experiment: Capture assay for c-rel binding (streptavidin plates, Jurkat nuclear extract); conditions: library pools at 1 μM; native binding site at 100 nM
Protocol: Crude nuclear extracts were prepared as detailed by Franza, et al., Nature 1987, 330, 391, from Jurkat cells stimulated 4 hours with 1 μM PHA and 100 nM PMA to induce the expression of rel. The extract was then preabsorbed with 100 μl streptavidin agarose per ml for 10 minutes. This was followed with the addition of poly dI.dC as a non specific competitor at a concentration of 100 μg/ml of extract.
Phosphorothioate oligonucleotides were synthesized with the sequence […]-B (SEQ ID NO: 22) and […]-B (SEQ ID NO:23), where B=biotin, as described in Examples 3 and 9. The complementary oligonucleotides were then hybridized to create the double stranded NF-kB binding site, which was used as a positive control in the assay. A combinatorial phosphorothioate library was also synthesized with the general sequence TNNNXNNNT-B, where X=A, G, C, or U as described in Examples 3 and 6.
Each pool of the library was incubated in triplicate at a concentration of 1 μM with 100 μl of the extract for 20 minutes at room temperature. As a positive control, the native double stranded NF-kB binding site was incubated at 100 nM with the same amount of extract. Following the incubation each mixture was added to streptavidin coated microtiter plates (Elkay Lab Systems) and incubated 20 minutes. […] Color development was measured 2 hours later by reading absorbance at 405 nm on a Titertek Multiscan ELISA plate reader.

Row | Substance | Kd (gag-pol stem loop) [µM] | other results
1 | pool fixed at G: RNA library pool CCA NNX NNNNGCCUGGGAGCNNNNUGG, X=G (CCANNGNNNNGCCUGGGAGCNNNNUGG; RNA, backbone and the base at N not given here) |  | inhibition of tat binding to ΔTAR, in words (HIV-tat protein [1]): least effect; amount of tat bound, in words (HIV-tat protein [2]): clearly binds more tat than the others
2 | D2: RNA oligonucleotide (CCCUUCCCUUC; RNA, backbone not given here) [Set D2] | 10 | 
3 | B2: RNA oligonucleotide (CCCUUCCCGUC; RNA, backbone not given here) [Set B2] | 10 | 
4 | C2: RNA oligonucleotide (CCCUUCCCCUC; RNA, backbone not given here) [Set C2] | 1 | 
5 | native NF-kB binding site: double stranded biotinylated phosphorothioate NF-kB binding site, SEQ ID NO: 22 and 23, positive control (chain 1 GGGGACTTTCCGCTGGGACTTTCTAG; chain 2 CTGGAAAGTCCCAGCGGAAGGTCCCC; all phosphorothioate, sugars by position and methylation of C not given here; biotinylated) |  | amount of c-rel bound, in words (c-rel): binds the greatest amount of rel
6 | A2: RNA oligonucleotide (CCCUUCCCAUC; RNA, backbone not given here) [Set A2] | 10 | 
